Results on three sequences are retold here after article PMC4038554, “Human CD4^+ T Cell Responses to the Dog Major Allergen Can f 1 and Its Human Homologue Tear Lipocalin Resemble Each Other” (PLoS ONE, 2014).

“And” between values parts separate entries of the source, which are not always exact repeats. Equal entries are not always repeated. Where two headings read alike, the source gives them in different places.

One experiment concerns the target DRB1*0101 (Homo sapiens, UniProt P01903+P01911, A100R/D57E/F55L/F60I/F76Y/I96L/L162R/M171V/P40L/Q125E/R42F/V115G/Y59C). Put plainly: HLA class II peptide-binding assay (competitive ELISA). The settings on record: immunopurified HLA, reference peptide IC50 3 nM, ratio ≤20 high affinity, 20–200 moderate affinity. (An ELISA detects its analyte on a solid surface through an enzyme-linked reagent.)

The target in a further experiment is DRB1*0301 (Homo sapiens, UniProt P01903+P01911, A100K/A102G/A103R/A169T/F55Y/I96L/K41T/L162R/M171V/P40S/Q125H/Q178H/Q39Y/R42S/S66N/T106N/T262R/W38E/Y61H). The description is as above. The settings on record: immunopurified HLA, reference peptide IC50 423 nM, ratio ≤20 high affinity, 20–200 moderate affinity.
A further experiment has as its target DRB1*0401 (Homo sapiens, UniProt P01903+P01911, A100K/A169T/F76Y/I96L/K127E/L162R/M171V/N62H/P40V/Q125Y/R42H/S133A/S149N/S66Y/V115G/V209L/W38E). The experiment is described as above. The settings on record: immunopurified HLA, reference peptide IC50 8 nM, ratio ≤20 high affinity, 20–200 moderate affinity.
The target in another experiment is DRB1*0701 (Homo sapiens, UniProt P01903+P01911, A100R/A102G/A103Q/D57E/D86V/E43K/F76Y/K127E/L162R/M171V/P40G/Q125H/Q99D/R33Q/R42Y/R54Q/S133A/S66F/T210M/V115G/Y107V/Y59L/Y89S). Described as above. The settings on record: immunopurified HLA, reference peptide IC50 5 nM, ratio ≤20 high affinity, 20–200 moderate affinity.
For the next experiment, the target named is DRB1*1101 (Homo sapiens, UniProt P01903+P01911, A100R/A169T/A87E/I96F/K41T/L162R/M171V/P40S/Q125H/Q178H/Q39Y/Q99D/R42S/S66Y/T262R/V115G/W38E). Described as above. The settings on record: immunopurified HLA, reference peptide IC50 50 nM, ratio ≤20 high affinity, 20–200 moderate affinity.
A further experiment has as its target DRB1*1301 (Homo sapiens, UniProt P01903+P01911, A100E/A169T/K41T/L162R/M171V/P40S/Q125H/Q178H/Q39Y/Q99D/R42S/S66N/T262R/W38E/Y61H). The description is as above. The settings on record: immunopurified HLA, reference peptide IC50 208 nM, ratio ≤20 high affinity, 20–200 moderate affinity.
The next experiment concerns the target DRB1*1501 (Homo sapiens, UniProt P01903+P01911). Described as above. The settings on record: immunopurified HLA, reference peptide IC50 775 nM, ratio ≤20 high affinity, 20–200 moderate affinity.
The next experiment relates to DRB3. The description is as above. More on the design: species or system human.
The next experiment relates to DRB4. The experiment is described as above. On the set-up: species or system human.
For another experiment, the system named is DRB5. The description is as above. More on the design: species or system human.
In experiment [1] the test system is CD25-depleted PBMCs (CD4+ T cells). Put plainly: Generation of peptide-specific CD4+ T cell lines with the split-well method (frequency of specific TCLs). The experiment is classed as cell-based, human. The settings on record: for positive specific TCLs out of 30 replicate wells per subject: peptides at 2 µM, 10^5 PBMCs per well, mean±SEM, SEM; for estimated average precursor frequency of peptide-specific T cells: estimated from TCL frequencies, assuming 30% CD4+ T cells in PBMCs. The method, then:
After isolating peripheral-blood mononuclear cells (PBMCs) by Ficoll-Paque Plus density gradient centrifugation (GE Healthcare Biosciences, Uppsala, Sweden), CD4^+CD25high regulatory T cells were depleted with anti-CD25-magnetic beads (Miltenyi Biotec, Bergisch Gladbach, Germany), to enhance the induction of both autoreactive and allergen-reactive CD4^+ T cell responses, as previously described, [34].The CD25-depleted PBMCs were seeded in 96-well U-bottomed plates (Corning Incorporated, Corning, USA; 10^5 PBMCs per well) in the presence of pooled Can f 1 or TL peptides (each peptide at 2 µM, 30 wells per a peptide pool), or the HA peptide (30 wells) in a 150 µl volume of RPMI 1640 culture medium supplemented with 2 mM L-glutamine, 20 µM 2-mercaptoethanol, 1 mM sodium pyruvate, nonessential amino acids, 100 IU/ml penicillin, 100 µg/ml streptomycin, 10 mM HEPES (all from Lonza, Verviers, Belgium) and 5% inactivated human AB serum (Sigma-Aldrich, St. Louis, MO). On day 5, 50 µl of fresh medium supplemented with 10 IU/ml of IL-2 (Strathmann Biotech, Hannover, Germany) was added to the cultures. On day 7, half of the culture medium was replaced without IL-2. On day 10, half of the cells in the cultures were split into daughter plates for testing specificity by stimulating the cells with or without the pooled peptides (each peptide at 2 µM) together with autologous γ-irradiated (3000 rad) PBMCs (5×10^5) as antigen-presenting cells. After an incubation of 72 h, [3H]thymidine was added (1 µCi per well; GE Healthcare, Little Chalfont, UK), and after an additional 16 h, the cells were harvested onto glass fiber filters on day 14 (Wallac, Turku, Finland). Radioactivity was measured by scintillation counting (Wallac Micro Beta 1540) and the results were expressed as counts per minute (CPM). The stimulation indices (SI; CPM in the presence of antigen divided by CPM in the absence of antigen) and CPM differences between stimulated and unstimulated wells (ΔCPM) were determined. On the same day, positive cultures (ΔCPM>2000 and SI>2) were restimulated in 48-well plates with autologous γ-irradiated PBMCs (10^6/well), 2 µM of the peptides and 25 IU/ml of IL-2. On day 28, the established TCLs were propagated once more with peptides, IL-2 and PBMCs. After stimulations, half of the culture medium was replaced with fresh medium supplemented with IL-2 every 2–3 days. The peptide specificity of TCLs was defined as described below.
T cell proliferation assays were set in duplicates in 96-well U-bottomed plates with 2.5×10^4 cultured T cells, 5×10^4 autologous γ-irradiated (3000 rad) PBMCs as APCs, and antigens as indicated. In order to determine the epitope specificity of the established TCLs induced with peptide pools, the T cell lines were tested with each of the three individual peptides in the pool at 10 µM on day 28. Proliferation was measured by radionuclide uptake (see above). […] On day 42, peptide-specific TCLs were tested with individual Can f 1 peptides, as well as their TL homologues, at several concentrations up to 10 µM. The functional T cell receptor (TCR) avidities of the TCLs for a peptide were assessed by determining effective concentration 50 (EC50) values (i.e., the concentration of a peptide needed to induce a half-maximal proliferative response) from the dose-response curves of individual TCLs.

Experiment [2] has as its system peptide-specific CD4+ T cell lines. Put plainly: Proliferation assay, functional TCR avidity (EC50) of peptide-specific TCLs. The experiment is classed as cell-based, human.
The mark [3] stands for this setting: DRB3, competitive ELISA, immunopurified HLA, reference peptide IC50 60 nM, ratio ≤20 high affinity, 20–200 moderate affinity.
Setting [4] is: DRB4, competitive ELISA, immunopurified HLA, reference peptide IC50 8 nM, ratio ≤20 high affinity, 20–200 moderate affinity.
Where [5] appears, read: DRB5, competitive ELISA, immunopurified HLA, reference peptide IC50 7 nM, ratio ≤20 high affinity, 20–200 moderate affinity.

With “PGKYTAYEGQRVVFIQ [pC4, Can f 1 peptide p73–88]”, the “relative binding ratio (IC50 of the test peptide divided by IC50 of the reference peptide)” value is reported as 1 at DRB1*0101; 13 at DRB1*0301; 82 at DRB1*0401; 1 on DRB1*0701; 133 at DRB1*1101; 56 at DRB1*1301. Besides, the “relative binding ratio (IC50 of the test peptide divided by IC50 of the reference peptide)” value at DRB1*1501 amounted to 0.4; with DRB3 (setting [3]) it was 61; in the experiment with DRB4 (setting [4]) it was 722; in the experiment with DRB5 (setting [5]) it was 14. For the same sequence, the “positive specific TCLs out of 30 replicate wells per subject” value (“positive specific TCLs out … per subject” for short) worked out at 5.0±1.15% in experiment [1] (allergic subjects) and 4.2±1.61% in [1] (nonallergic subjects).
As to “PKYVKQNTLKLAT [HA, influenza hemagglutinin (HA) peptide (amino acids 306–318), viral control peptide, reference compound]”, the “relative binding ratio (IC50 of the test peptide divided by IC50 of the reference peptide)” value was greater than 167 in the experiment with DRB3, > 1 179 in the experiment with DRB4 and 1 in the experiment on DRB5. In addition, the “estimated average precursor frequency of peptide-specific T cells” value is on record as 4.2 per 10^6 CD4^+ T cells in experiment [1] (allergic subjects) and 2.9 per 10^6 CD4^+ T cells in experiment [1] (nonallergic subjects). Besides, the “positive specific TCLs out … per subject” value in experiment [1] (allergic subjects) was 12.68±10.98%; in experiment [1] (nonallergic subjects), 8.60±13.37%. In addition, the “percentage of high-avidity (EC50<0.1 µM) TCLs” value in experiment [2] was 25.0% and 22.6%.
Turning to “LEAKVTMLISGRCQEVK [pTL3, Tear lipocalin peptide p49–65]”, the “relative binding ratio (IC50 of the test peptide divided by IC50 of the reference peptide)” value on DRB1*0101 came out at 2; at DRB1*0301, 0.4; on DRB1*0401, 82; on DRB1*0701 it was 0.2; at DRB1*1101, 5; at DRB1*1301, 3. Moreover, the “relative binding ratio (IC50 of the test peptide divided by IC50 of the reference peptide)” value is reported as 1 at DRB1*1501, 8 with DRB3 (setting [3]), 312 with DRB4 (setting [4]) and 4 in the experiment with DRB5 (setting [5]). For the same sequence, the figures for the “positive specific TCLs out … per subject” value in experiment [1] (allergic subjects) and in experiment [1] (nonallergic subjects) were 1.89±0.57% and 4.2±0.68%, respectively.
